Results from US9957267B2, “Somatostatin modulators and uses thereof” (Crinetics Pharmaceuticals, Inc., priority 2015, dated 2018).

Assays:
Format in all cases: cell-based
[1] = target: T1, SSTR5 (Homo sapiens, UniProt P35346); experiment: cAMP functional agonist assay, CHO cells expressing SSTR5; conditions: CHO cells stably expressing SSTR5, cAMP
T1 construct: expressed in transfected cells
Method: (§1) Chinese hamster ovary (CHO) cells stably expressing one of the six human or rodent somatostatin receptor subtypes are grown to 85-100% confluence on standard tissue culture dishes in F12-Ham's growth media (Hyclone) with following additives: 10% donor calf serum (Hyclone), 200 U/mL penicillin (Hyclone), 200 μg/mL streptomycin (Hyclone), 20 mM HEPES (Hyclone), 200 μg/mL hygromycin Hyclone.
(§2) General overview: All SSTR subtypes are Gi coupled G-protein coupled receptors (GPCRs) that lead to decreases in intracellular cyclic AMP (cAMP) when activated by an agonist. Therefore, measurement of intracellular cAMP levels can be used to assess whether compounds of the invention are agonists of SSTR subtypes (John Kelly, Troy Stevens, W. Joseph Thompson, and Roland Seifert, Current Protocols in Pharmacology, 2005, 2.2.1-2.2). One example of an intracellular cAMP assay is described below.

[2] = target: T2, SSTR4 (Homo sapiens, UniProt P31391); experiment: cAMP functional agonist assay, CHO cells expressing SSTR4; conditions: CHO cells stably expressing SSTR4, cAMP; read-out: SSTR4 EC50
T2 construct: expressed in transfected cells
Method: as §1
(§3) General overview: All SSTR subtypes are Gi coupled G-protein coupled receptors (GPCRs) that lead to decreases in intracellular cyclic AMP (cAMP) when activated by an agonist. […] One example of an intracellular cAMP assay is described below.

[3] = target: SSTR3 (UniProt P32745); experiment: cAMP functional agonist assay, CHO cells expressing SSTR3; conditions: CHO cells stably expressing SSTR3, cAMP
Method: as §1, §2

[4] = target: T3, SSTR1 (Homo sapiens, UniProt P30872); experiment: cAMP functional agonist assay, CHO cells expressing SSTR1; conditions: CHO cells stably expressing SSTR1, cAMP; read-out: SSTR1 EC50
T3 construct: expressed in transfected cells
Method: as §1, §3

[5] = target: T4, human somatostatin receptor subtype 2a (Homo sapiens, UniProt P30874); experiment: cAMP assay for SSTR2a agonists (HTRF cAMP kit, NKH-477 stimulated); conditions: CHO cells stably expressing human SSTR2a, 1.6 μM NKH-477
T4 construct: expressed in transfected cells
Method: as §1, §2
Four days prior to the assay, 5000 Chinese hamster ovary (CHO) cells stably expressing the human somatostatin receptor subtype 2a are plated in each well of a 96-well tissue culture plate (Nest Biotech Cell, flat bottom with low evaporation tissue culture treated; Polystyrene; Non-Pyrogenic) in F12-Ham's media (100 μL/well) supplemented with 200 μg/mL of hygromycin. Incubate at 37 C, 5% CO2, 95% humidity for four days. The cells should reach full confluence. On the day of the assay, various dilutions of the compounds of the invention are prepared in assay buffer (HRTF cAMP kit, Cisbio) in the presence of 1.6 μM NKH-477 (a water-soluble forskolin derivative) and 50 μL of the dilutions are added to the cultured cells and incubated for 20 minutes at 37° C. […] 50 μL of lysis buffer (HRTF cAMP kit, Cisbio) is added to each well and incubated at room temperature for 30 minutes, after which 150 μL assay buffer is added to each well. In a 384-well plate (Grenier, 784-080), 10 μL of assay mixture is added to 10 μL of developing mixture, containing cAMP detection and visualization antibodies are added and the assay is allowed incubate for 1-24 hours at room temperature. The intracellular cAMP concentrations are then measured using a commercially available detection kit (for example, the cAMP HTRF kit, Cisbio). The measured intracellular cAMP concentrations are plotted vs. the concentration of the compounds of the invention and the EC50 of the compounds are calculated using standard methods.

T3 sequence (P30872 whole entry): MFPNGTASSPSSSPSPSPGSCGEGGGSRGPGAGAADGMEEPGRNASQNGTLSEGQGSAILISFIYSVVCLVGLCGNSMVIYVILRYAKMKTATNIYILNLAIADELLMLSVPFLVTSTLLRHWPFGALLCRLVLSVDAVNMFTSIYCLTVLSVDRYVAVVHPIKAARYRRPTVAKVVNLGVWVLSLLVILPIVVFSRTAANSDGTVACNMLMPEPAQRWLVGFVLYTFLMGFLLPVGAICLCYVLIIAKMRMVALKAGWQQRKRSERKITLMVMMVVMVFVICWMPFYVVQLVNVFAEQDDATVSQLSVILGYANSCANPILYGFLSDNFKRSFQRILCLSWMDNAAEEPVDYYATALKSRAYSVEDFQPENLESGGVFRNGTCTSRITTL
Sequence of SSTR3 (P32745 whole entry): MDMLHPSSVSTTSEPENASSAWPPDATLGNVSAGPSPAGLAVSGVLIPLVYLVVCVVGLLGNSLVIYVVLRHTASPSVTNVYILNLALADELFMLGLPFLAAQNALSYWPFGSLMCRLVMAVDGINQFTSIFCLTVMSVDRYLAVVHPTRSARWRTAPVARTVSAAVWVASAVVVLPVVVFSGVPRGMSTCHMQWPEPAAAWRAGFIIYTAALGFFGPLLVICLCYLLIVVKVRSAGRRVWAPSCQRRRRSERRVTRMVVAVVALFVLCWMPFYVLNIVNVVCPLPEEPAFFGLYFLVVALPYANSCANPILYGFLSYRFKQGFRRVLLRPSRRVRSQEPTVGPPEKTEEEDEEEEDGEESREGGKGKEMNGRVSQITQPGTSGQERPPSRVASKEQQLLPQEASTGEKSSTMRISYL
T1 sequence (P35346 whole entry): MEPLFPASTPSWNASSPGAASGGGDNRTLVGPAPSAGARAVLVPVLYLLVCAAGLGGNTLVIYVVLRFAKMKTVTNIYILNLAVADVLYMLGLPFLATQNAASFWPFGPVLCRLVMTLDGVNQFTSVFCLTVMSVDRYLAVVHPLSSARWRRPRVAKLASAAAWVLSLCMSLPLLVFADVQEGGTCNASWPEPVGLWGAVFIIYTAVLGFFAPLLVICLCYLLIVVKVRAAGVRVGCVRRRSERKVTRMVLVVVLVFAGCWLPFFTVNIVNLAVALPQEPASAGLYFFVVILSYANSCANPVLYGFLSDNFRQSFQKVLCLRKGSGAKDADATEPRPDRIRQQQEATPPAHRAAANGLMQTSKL
T4 sequence (P30874 whole entry): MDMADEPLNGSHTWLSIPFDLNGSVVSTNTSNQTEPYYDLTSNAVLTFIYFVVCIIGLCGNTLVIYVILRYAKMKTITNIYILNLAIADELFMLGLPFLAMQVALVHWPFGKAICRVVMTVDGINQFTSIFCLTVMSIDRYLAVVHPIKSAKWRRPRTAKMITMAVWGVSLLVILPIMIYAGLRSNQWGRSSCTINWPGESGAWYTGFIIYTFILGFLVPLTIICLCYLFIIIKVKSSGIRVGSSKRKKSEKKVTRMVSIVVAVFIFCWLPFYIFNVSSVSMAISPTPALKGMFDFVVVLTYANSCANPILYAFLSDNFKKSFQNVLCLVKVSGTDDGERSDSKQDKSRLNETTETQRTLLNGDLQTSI
T2 sequence (P31391 whole entry): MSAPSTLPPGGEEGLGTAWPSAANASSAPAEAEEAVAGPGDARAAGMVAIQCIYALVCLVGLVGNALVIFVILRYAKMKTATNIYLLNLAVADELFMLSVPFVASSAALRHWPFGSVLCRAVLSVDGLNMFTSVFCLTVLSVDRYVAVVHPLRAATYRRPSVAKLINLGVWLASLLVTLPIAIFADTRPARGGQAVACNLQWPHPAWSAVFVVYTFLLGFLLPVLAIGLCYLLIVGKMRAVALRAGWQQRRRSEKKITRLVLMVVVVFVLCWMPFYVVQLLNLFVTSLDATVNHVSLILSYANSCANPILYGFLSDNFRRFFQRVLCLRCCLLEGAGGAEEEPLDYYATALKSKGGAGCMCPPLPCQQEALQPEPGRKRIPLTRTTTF

Row | EC50 [1] [nM] | EC50 [2] [nM] | EC50 [3] [nM] | EC50 [4] [nM] | EC50 [5] [nM] | Molecule
1 | > 10000 | < 100 | < 100 | 100 to 10000 | < 100 | 5-({[(2S)-2-aminobutyl](methyl)amino}methyl)-6-(3,5-dimethylphenyl)-3-[3-hydroxy-5-(trifluoromethyl)phenyl]-3H,4H-pyrido[2,3-d]pyrimidin-4-one [Compound A-63]
2 |  | < 100 | 100 to 10000 | > 10000 | < 100 | CCN(CCN)Cc1c(-c2cc(C)cc(Cl)c2)cnc2ncn(-c3cc(O)cc(F)c3)c(=O)c12 [Compound A-3, 5-(((2-aminoethyl)(ethyl)amino)methyl)-6-(3-chloro-5-methylphenyl)-3-(3-fluoro-5-hydroxyphenyl)pyrido[2,3-d]pyrimidin-4(3H)-one]
3 | 100 to 10000 | < 100 | 100 to 10000 | 100 to 10000 | < 100 | CCCN(CCN)Cc1c(-c2cc(C)cc(C)c2)cnc2ncn(-c3cccc(O)c3)c(=O)c12 [Compound A-4, 5-{[(2-aminoethyl)(propyl)amino]methyl}-6-(3,5-dimethylphenyl)-3-(3-hydroxyphenyl)-3H,4H-pyrido[2,3-d]pyrimidin-4-one]
4 |  | < 100 | < 100 | 100 to 10000 | < 100 | CCN(Cc1c(-c2cc(C)cc(C)c2)cnc2ncn(-c3cccc(O)c3)c(=O)c12)C[C@H](C)N [Compound A-9, 5-({[(2S)-2-aminopropyl](ethyl)amino}methyl)-6-(3,5-dimethylphenyl)-3-(3-hydroxyphenyl)-3H,4H-pyrido[2,3-d]pyrimidin-4-one]
5 | > 10000 | < 100 | < 100 | 100 to 10000 | < 100 | Cc1cccc(-c2cnc3ncn(-c4cccc(O)c4)c(=O)c3c2CN(C)CC2CCCCN2)c1 (stereo not drawn) [Compound A-21, 3-(3-hydroxyphenyl)-5-{[methyl(piperidin-2-ylmethyl)amino]methyl}-6-(3-methylphenyl)-3H,4H-pyrido[2,3-d]pyrimidin-4-one]
6 |  | < 100 | < 100 | 100 to 10000 | < 100 | CN(Cc1c(-c2cccc(Cl)c2)cnc2ncn(-c3cccc(O)c3)c(=O)c12)CC1CCCCN1 (stereo not drawn) [Compound A-24, 6-(3-chlorophenyl)-3-(3-hydroxyphenyl)-5-{[methyl(piperidin-2-ylmethyl)amino]methyl}-3H,4H-pyrido[2,3-d]pyrimidin-4-one]
7 |  | < 100 | < 100 | 100 to 10000 | < 100 | Cc1cc(F)cc(-c2cnc3ncn(-c4cccc(O)c4)c(=O)c3c2CN(C)CC2CCCCN2)c1 (stereo not drawn) [Compound A-25, 6-(3-fluoro-5-methylphenyl)-3-(3-hydroxyphenyl)-5-{[methyl(piperidin-2-ylmethyl)amino]methyl}-3H,4H-pyrido[2,3-d]pyrimidin-4-one]
8 | 100 to 10000 | < 100 | < 100 | 100 to 10000 | < 100 | Cc1cc(C)cc(-c2cnc3ncn(-c4cc(O)cc(F)c4)c(=O)c3c2CN(C)C[C@@H]2CCCCN2)c1 [Compound A-27, 6-(3,5-dimethylphenyl)-3-(3-fluoro-5-hydroxyphenyl)-5-({methyl[(2S)-piperidin-2-ylmethyl]amino}methyl)-3H,4H-pyrido[2,3-d]pyrimidin-4-one]
9 | 100 to 10000 | < 100 | < 100 | 100 to 10000 | < 100 | Cc1cc(Cl)cc(-c2cnc3ncn(-c4cc(O)cc(F)c4)c(=O)c3c2CN(C)C[C@@H]2CCCCN2)c1 [Compound A-28, 6-(3-chloro-5-methylphenyl)-3-(3-fluoro-5-hydroxyphenyl)-5-({methyl[(2S)-piperidin-2-ylmethyl]amino}methyl)-3H,4H-pyrido[2,3-d]pyrimidin-4-one]
10 |  | < 100 | < 100 | 100 to 10000 | < 100 | Cc1cc(Cl)cc(-c2cnc3ncn(-c4cccc(O)c4)c(=O)c3c2CN(C)C[C@@H]2CCCCN2)c1 [Compound A-29, 6-(3-chloro-5-methylphenyl)-3-(3-hydroxyphenyl)-5-({methyl[(2S)-piperidin-2-ylmethyl]amino}methyl)-3H,4H-pyrido[2,3-d]pyrimidin-4-one]
11 | > 10000 | < 100 | 100 to 10000 | > 10000 | < 100 | CN(Cc1c(-c2cccc(CCO)c2)cnc2ncn(-c3cccc(O)c3)c(=O)c12)C[C@@H]1CCCN1 [Compound A-32, 6-[3-(2-hydroxyethyl)phenyl]-3-(3-hydroxyphenyl)-5-({methyl[(2S)-pyrrolidin-2-ylmethyl]amino}methyl)-3H,4H-pyrido[2,3-d]pyrimidin-4-one]
12 | > 10000 | < 100 | 100 to 10000 | > 10000 | < 100 | CN(Cc1c(-c2cccc(CO)c2)cnc2ncn(-c3cccc(O)c3)c(=O)c12)C[C@@H]1CCCN1 [Compound A-34, 6-[3-(hydroxymethyl)phenyl]-3-(3-hydroxyphenyl)-5-({methyl[(2S)-pyrrolidin-2-ylmethyl]amino}methyl)-3H,4H-pyrido[2,3-d]pyrimidin-4-one]
13 | > 10000 | < 100 | < 100 | 100 to 10000 | < 100 | Cc1cc(Cl)cc(-c2cnc3ncn(-c4cc(O)cc(C(F)(F)F)c4)c(=O)c3c2CN(C)C[C@@H]2CCCN2)c1 [Compound A-48, 6-(3-chloro-5-methylphenyl)-3-[3-hydroxy-5-(trifluoromethyl)phenyl]-5-({methyl[(2S)-pyrrolidin-2-ylmethyl]amino}methyl)-3H,4H-pyrido[2,3-d]pyrimidin-4-one]
14 | > 10000 | < 100 | < 100 | 100 to 10000 | < 100 | Cc1cc(Cl)cc(-c2cnc3ncn(-c4cc(O)cc(Cl)c4)c(=O)c3c2CN(C)C[C@@H]2CCCN2)c1 [Compound A-49, 3-(3-chloro-5-hydroxyphenyl)-6-(3-chloro-5-methylphenyl)-5-({methyl[(2S)-pyrrolidin-2-ylmethyl]amino}methyl)-3H,4H-pyrido[2,3-d]pyrimidin-4-one]
15 | > 10000 | < 100 | 100 to 10000 |  | < 100 | Cc1cc(Cl)cc(-c2cnc3ncn(-c4cc(O)cc(OC(F)(F)F)c4)c(=O)c3c2CN(C)C[C@@H]2CCCN2)c1 [Compound A-52, 6-(3-chloro-5-methylphenyl)-3-[3-hydroxy-5-(trifluoromethoxy)phenyl]-5-({methyl[(2S)-pyrrolidin-2-ylmethyl]amino}methyl)-3H,4H-pyrido[2,3-d]pyrimidin-4-one]
16 |  | < 100 | < 100 | 100 to 10000 | < 100 | Cc1cc(Cl)cc(-c2cnc3nc(C)n(-c4cc(F)cc(C#N)c4)c(=O)c3c2CN(C)C[C@@H]2CCCN2)c1 [Compound A-60, 3-[6-(3-chloro-5-methylphenyl)-2-methyl-5-({methyl[(2S)-pyrrolidin-2-ylmethyl]amino}methyl)-4-oxo-3H,4H-pyrido[2,3-d]pyrimidin-3-yl]-5-fluorobenzonitrile]
17 | > 10000 | < 100 | 100 to 10000 |  | < 100 | CC[C@H](N)CN(C)Cc1c(-c2cc(C)cc(C)c2)cnc2ncn(-c3cccc(O)c3)c(=O)c12 [Compound A-61, 5-({[(2S)-2-aminobutyl](methyl)amino}methyl)-6-(3,5-dimethylphenyl)-3-(3-hydroxyphenyl)-3H,4H-pyrido[2,3-d]pyrimidin-4-one]
18 |  | < 100 | 100 to 10000 | > 10000 | < 100 | CC[C@H](N)CN(C)Cc1c(-c2cc(C)cc(Cl)c2)cnc2ncn(-c3cc(O)cc(F)c3)c(=O)c12 [Compound A-66, 5-({[(2S)-2-aminobutyl](methyl)amino}methyl)-6-(3-chloro-5-methylphenyl)-3-(3-fluoro-5-hydroxyphenyl)-3H,4H-pyrido[2,3-d]pyrimidin-4-one]
